Patent US12642794B2, “Dose regimens for use of LY3154207 in the treatment of dopaminergic CNS disorders” (Eli Lilly and Company, priority 2018, dated 2026)
Entries after “also recorded” stand apart in the source; their conditions may differ. Read-outs that look alike come from different tables or passages of the source.

What was measured:
Assay type in all cases: in vivo, human
[1] = test system: sleep-deprived healthy male subjects; assay: HBEB sleep latency study: multiple sleep latency test (MSLT), Karolinska Sleepiness Scale; conditions: for effect on wakefulness / sleep latency: single doses 15 mg to 75 mg
Excerpt: FIG. 2: HBEB, a Phase 1, single-dose, randomized, placebo-controlled, 4-period, incomplete crossover study in sleep-deprived healthy male subjects (n=17). Effects of a single dose of LY3154207 on wakefulness as measured by the multiple sleep latency test (MSLT) in sleep deprived healthy male subjects. Sleep latency is time from start of MSLT to first detection of sleep (minutes). […] CI=confidence interval: LS-least squares: MSLT=multiple sleep latency test.
Dose dependent activating adverse events were also observed in a single ascending dose study. To determine the effects of a single dose of LY3154207 was studied on wakefulness as measured by the multiple sleep latency test (MSLT) in sleep deprived healthy male subjects. HBEB was a Phase 1, single-dose, randomized, placebo-controlled, 4-period, incomplete crossover study in sleep-deprived healthy male subjects (n=17). Subjects were randomized to receive a single dose of either placebo, LY3154207 15, 30, or 75 mg (double-blind), or modafinil (open-label control). In each period, subjects were sleep deprived for approximately 26 hours before dosing and approximately 12 hours post-dose. MSLT was conducted every 2 hours until 10 hours post-dose. Analysis based on mixed-model repeated measures included treatment, period, time, and the treatment-by-time interaction as fixed effects, and subject as a random effect: overall sleep latency was the average of the 4 post-dose sleep latencies. All subjects are randomized to receive 4 out of 5 available single dose treatments (15, 30, 75 mg LY3154207, placebo or modafanil 200 mg) with all subjects receiving placebo. The washout period is at least 7 days. MSLT is the primary assessment of wakefulness. Secondary outcomes include the Karolinska Sleepiness Scale (KSS), EEG and a simple reaction performance task. Blood samples are collected to measure plasma concentrations of LY3154207 and modafinil. Seventeen subjects are enrolled and received at least one dose of study drug with sixteen subjects completing all 4 periods of the trial. A dose dependent increase in MSLT is observed with least square means (95% CI) difference compared to placebo of 5.2 minutes (3.3,7.1) for 75 mg, 3.2 minutes (1.4, 5.1) for 30 mg, 1.3 minutes (−0.6, 3.2) for 15 mg, as shown in FIG. 2. […] PK is linear with a Cmax and t1/2 of approximately 3 and 9 hours across the dose range.

[2] = HBEC Part B pharmacokinetics, participants with PD; conditions: for Cmax / AUC(0-t) / Tmax: human, oral, 75 mg; for AUC(0-t): read-out: AUC(0-24); for Tmax: read-out: tmax, median
Description: (§1) In this randomized, double-blind, placebo-controlled, multiple ascending dose, parallel-group study, HBEC, healthy subjects (Part A) and participants with PD (Part B) received once-daily doses of LY3154207 (15, 30, 75, or 150 mg in Part A and up to 75 mg in Part B) or placebo for 14 days, as illustrated in FIG. 3.
(§2) Study outcomes included 24-hour ambulatory blood pressure monitoring (ABPM), treatment-emergent adverse events (TEAEs), and PK assessments in both healthy subjects and participants with PD, as well as Movement Disorder Society-United Parkinson's Disease Rating Scale (MDS-UPDRS) assessments to evaluate the impact of LY3154207 on motor function in participants with PD. The objective was to explore the safety, tolerability, and pharmacokinetics (PK) of multiple oral daily dosing of LY3154207 in healthy subjects (Part A) and in participants with PD (Part B).

[3] = test system: healthy subjects; assay: HBEC Part A multiple ascending dose study: TEAEs, vital signs, tolerability
Description: (§3) FIG. 3: Design of the study HBEC, a multiple ascending dose study of LY3154207, a randomized, double-blind, placebo-controlled, multiple ascending dose, parallel-group study, of healthy subjects (Part A) and participants with PD (Part B) who received once-daily doses of LY3154207 (15, 30, 75, or 150 mg in Part A and up to 75 mg in Part B) or placebo for 14 days. aEach ascending dose cohort commenced only after review of the safety data to at least Day 7 from the previous cohort. bParticipants with PD in Cohort 6 received titrated doses to determine the effect of this dosing schedule (i.e., Days 1-3:15 mg: Days 4-6:30 mg; and Days 7-14:75 mg) on cardiovascular effects. Note: All cohorts were dosed for 14 days. CRU=clinical research unit: LY=LY3154207; PBO=placebo: PD=Parkinson's disease: R=randomized.
as §1, §2

[4] = test system: participants with PD; assay: HBEC Part B multiple dose study: TEAEs, vital signs, tolerability
Description: as §3, §1, §2

[5] = HBEB plasma pharmacokinetics
Excerpt: Dose dependent activating adverse events were also observed in a single ascending dose study. To determine the effects of a single dose of LY3154207 was studied on wakefulness as measured by the multiple sleep latency test (MSLT) in sleep deprived healthy male subjects. HBEB was a Phase 1, single-dose, randomized, placebo-controlled, 4-period, incomplete crossover study in sleep-deprived healthy male subjects (n=17). Subjects were randomized to receive a single dose of either placebo, LY3154207 15, 30, or 75 mg (double-blind), or modafinil (open-label control). In each period, subjects were sleep deprived for approximately 26 hours before dosing and approximately 12 hours post-dose. MSLT was conducted every 2 hours until 10 hours post-dose. Analysis based on mixed-model repeated measures included treatment, period, time, and the treatment-by-time interaction as fixed effects, and subject as a random effect: overall sleep latency was the average of the 4 post-dose sleep latencies. All subjects are randomized to receive 4 out of 5 available single dose treatments (15, 30, 75 mg LY3154207, placebo or modafanil 200 mg) with all subjects receiving placebo. The washout period is at least 7 days. MSLT is the primary assessment of wakefulness. Secondary outcomes include the Karolinska Sleepiness Scale (KSS), EEG and a simple reaction performance task. […]

[6] = in vivo, participants with PD, Day 14, LY 75 mg (N = 8), geometric mean
[7] = in vivo, participants with PD, Day 14, LY 75 mg Titration (N = 8), geometric mean
[8] = participants with PD, LY 75 mg (N = 8), geometric mean
[9] = healthy subjects, LY 15 mg once daily for 14 days (N = 9)
[10] = healthy subjects, LY 30 mg once daily for 14 days (N = 9)
[11] = healthy subjects, LY 75 mg once daily for 14 days (N = 9)
[12] = healthy subjects, LY 150 mg once daily for 14 days (N = 9)
[13] = healthy subjects, primarily at the 150 mg dose
[14] = participants with PD receiving LY3154207
[15] = participants with PD, LY 75 mg Titration (Days 1-3: 15 mg; Days 4-6: 30 mg; Days 7-14: 75 mg) (N = 8)
[16] = participants with PD, LY 75 mg once daily for 14 days (N = 9)

SMILES: C[C@H]1c2cccc(CCC(C)(C)O)c2C[C@H](CO)N1C(=O)Cc1c(Cl)cccc1Cl [LY3154207]
- MSLT sleep latency, least square means difference compared to placebo ([1]; single dose 15 mg): 1.3 min
- MSLT sleep latency, least square means difference compared to placebo ([1]; single dose 30 mg): 3.2 min
- MSLT sleep latency, least square means difference compared to placebo ([1]; single dose 75 mg): 5.2 min
- effect on wakefulness / sleep latency [1]: improves wakefulness in a dose dependent manner; also recorded: linear and dose-dependent effect on sleep latency
- effect on wakefulness / sleep latency ([1]; listed as LY3144207): increases wakefulness
- alertness measured by the Karolinska sleepiness scale ([1]; single doses 15, 30, 75 mg): dose-dependent increase in alertness
- increase in AUC (0-24) in participants with PD versus healthy subjects ([2]; Day 14 after 75 mg): 42%
- increase in Cmax in participants with PD versus healthy subjects ([2]; Day 14 after 75 mg): 25%
- Cmax [2, 6]: 335 ng/mL
- AUC(0-t) [2, 6]: 3050 ng·h/mL
- Tmax ([2]; in vivo, participants with PD, Day 14, LY 75 mg (N = 8)): 2 h
- Cmax [2, 7]: 400 ng/mL
- AUC(0-t) [2, 7]: 3680 ng·h/mL
- Tmax ([2]; in vivo, participants with PD, Day 14, LY 75 mg Titration (N = 8)): 2.5 h
- exposure in participants with PD compared with healthy subjects ([2]; in vivo): slight increase
- accumulation upon repeated dosing ([2]; participants with PD): minimal accumulation
- CLss/F ([2]; participants with PD, Day 14, LY 75 mg (N = 8), geometric mean): 24.6 L/h
- CLss/F ([2]; participants with PD, Day 14, LY 75 mg Titration (N = 8), geometric mean): 20.4 L/h
- RAAUC(0-24) (accumulation ratio Day 14:Day 1) [2, 8]: 1.06
- RACmax (accumulation ratio Day 14:Day 1) [2, 8]: 1.05
- incidence of TEAEs following multiple dosing ([3]; healthy subjects): dose-dependent increase
- severe or serious TEAEs ([3]; healthy subjects): no severe or serious TEAEs
- Number of TEAEs [3, 9]: 6
- Number of TEAEs, Mild [3, 9]: 6
- Number of TEAEs, Moderate [3, 9]: 0
- Subjects with ≥1 TEAE, (%) [3, 9]: (44.4) %
- Number of TEAEs [3, 10]: 5
- Number of TEAEs, Mild [3, 10]: 5
- Number of TEAEs, Moderate [3, 10]: 0
- Subjects with ≥1 TEAE, (%) [3, 10]: (55.6) %
- Number of TEAEs [3, 11]: 6
- Number of TEAEs, Mild [3, 11]: 6
- Number of TEAEs, Moderate [3, 11]: 0
- Subjects with ≥1 TEAE, (%) [3, 11]: (33.3) %
- Number of TEAEs [3, 12]: 35
- Number of TEAEs, Mild [3, 12]: 35
- Number of TEAEs, Moderate [3, 12]: 0
- Subjects with ≥1 TEAE, (%) [3, 12]: (88.9) %
- dizziness, treatment-related AE [3, 13]: 3 n
- insomnia, treatment-related AE [3, 13]: 4 n
- nausea, treatment-related AE [3, 13]: 2 n
- nervousness, treatment-related AE [3, 13]: 3 n
- palpitations, treatment-related AE [3, 13]: 3 n
- course of the initial increase in SBP, DBP, and pulse rate ([3]; healthy subjects, repeated dosing): showed accommodation with repeated dosing
- tolerability of multiple once-daily doses ([3]; up to 150 mg in healthy subjects): well tolerated
- severe or serious TEAEs ([4]; participants with PD): no severe or serious TEAEs
- headache, treatment-related AE [4, 14]: 1 n
- hypoesthesia, treatment-related AE [4, 14]: 1 n
- upper abdominal pain, treatment-related AE [4, 14]: 1 n
- visual hallucination, treatment-related AE [4, 14]: 1 n
- Number of TEAEs [4, 15]: 7
- Number of TEAEs, Mild [4, 15]: 6
- Number of TEAEs, Moderate [4, 15]: 1
- Subjects with ≥1 TEAE, (%) [4, 15]: (62.5) %
- Number of TEAEs [4, 16]: 14
- Number of TEAEs, Mild [4, 16]: 13
- Number of TEAEs, Moderate [4, 16]: 1
- Subjects with ≥1 TEAE, (%) [4, 16]: (66.7) %
- course of the initial increase in SBP, DBP, and pulse rate ([4]; participants with PD, repeated dosing): accommodation effect was less notable
- tolerability of multiple once-daily doses ([4]; up to 75 mg in participants with PD): well tolerated
- linearity of PK [5]: linear
- half-life ([5]; male, human, plasma, across the dose range): ~9 h
